Data: US11696895B2, “Fine particle coating (drug-containing hollow particle and method for manufacturing same)” (Sumitomo Pharma Co., Ltd., priority 2017, dated 2023)

How the values were obtained:
[1] = Dissolution test (paddle method, revised 16th Japanese Pharmacopoeia), HPLC; format: physicochemical; details: 50% dissolution time after coating / before coating (uncoated nucleus)
Description: Dissolution tests were conducted using the tablets manufactured in Comparative Example 2 and Example 2. Water of 37° C./900 ML was used as the test solution for measurement at a number of rotations of 50 RPM based on the paddle method of a dissolution test method in the revised 16th Japanese Pharmacopoeia. The measurement times were 10, 15, 30, 45, 60, 90, 120, 360, 720, 1080, and 1440. The sampling solution was filtered and measured by HPLC to calculate the dissolution rate.
<HPLC Measurement Conditions> • Detector: ultraviolet visible spectrophotometer • Measurement wavelength: 285 NM • Column: WATERS ACQUITY UPLC C18 [2.1 MM Φ×30 MM] • Colum temperature: 40° C. • Amount of flow: 0.5 ML/MIN • Amount injected: […] • Sample cooler: 25° C. • Syringe cleansing solution: water/acetonitrile mixture=1/1 • Mobile phase: water/acetonitrile mixture=4/1
A dissolution test was conducted using the particles manufactured in Example 4 and particles manufactured in Comparative Example 1. The test conditions were the same as Test Example 1.
A dissolution test was conducted using the coated component of interest-containing hollow particles manufactured in Example 5. The test conditions were the same as Test Example 1. […] The dissolution time was extended by a factor of 2 or greater. Improvement in the ability to control release of macromolecules constituting nuclear particles was confirmed for all coated component of interest-containing hollow particles using water insoluble particles as coatable microparticles.
A dissolution test was conducted using the particles manufactured in Example 7-2 and tablets manufactured in Example 8-1 and Comparative Examples 8-1 and 8-2. The test conditions were the same as in Test Example 1.
A dissolution test was conducted using the particles manufactured in Example 11 and Comparative Example 11. The test conditions were the same as Test Example 1.
A dissolution test was conducted using the particles manufactured in Comparative Example 12B. The test conditions were the same as Test Example 1.

[2] = Particle size distribution (laser diffraction, volume based); format: physicochemical; details: Table 2-2 particle sizes
Description: As used herein, “mean particle size” refers to cumulative 50% point of particle size D50 in volume based measurement of powder particles. Such a mean particle size is measured based on volume with a laser diffraction particle size distribution analyzer (e.g., Powrex Corp: […] VIEWER, Shimadzu Corp: SALD-3000J, or […]: HELOS & RODOS).
The particle size distribution of components of interest, macromolecules, other additives, mixed powder of components of interest and other additives, resulting coated component of interest-containing hollow particles, and coatable microparticles was measured based on volume with a laser diffraction particle size distribution analyzer (e.g., Powrex Corp: […] VIEWER or […]: HELOS & RODOS).

Ratio of 50% dissolution time with respect to nucleus (JP 1st) [1]	D10 [2] [µm]	D50 [2] [µm]	D90 [2] [µm]	SMILES
≥ 63				COc1cc(N)c(Cl)cc1C(=O)NC[C@H]1CN(CC2CCN(C(=O)CO)CC2)CCO1 [Compound D]
≥ 21				CC(=O)Nc1ccc(O)cc1 [Compound E, N-(4-HYDROXYPHENYL)ACETAMIDE]
	0.73	1.99	5.16	NS(=O)(=O)Cc1noc2ccccc12 [Compound A, 1,2-BENZISOXAZOLE-3-METHANESULFONAMIDE]

SMILES	Ratio of 50% dissolution time with respect to nucleus (JP 1st) [1]	D10 [2] [µm]	D50 [2] [µm]	D90 [2] [µm]
Cn1c(=O)c2c(ncn2C)n(C)c1=O [Compound F, 1,3,7-TRIMETHYLPURINE-2,6-DIONE]	≥ 235			
